# According to ChEMBL document CHEMBL4619763 (J Nat Prod, 2020):
# The source made the active and inactive calls. The rule behind the calls is not given here.
# How the values were obtained:
# Rattus norvegicus [1] = experiment: Diuretic activity in normotensive Wistar rat assessed as urine pH at 1 mg/kg, ip after 8 hrs (reference value: 6.05 +/- 0.22); format: functional
# Rattus norvegicus [2] = experiment: Diuretic activity in normotensive Wistar rat assessed as urine pH at 0.1 mg/kg, po administered via gavage after 8 hrs in presence of amiloride (reference value: 6.14 to 6.21); format: functional
# Rattus norvegicus [3] = experiment: Diuretic activity in normotensive Wistar rat assessed as effect on urinary potassium excretion at 0.1 mg/kg, po administered via gavage for 7 days; format: ADME, organism-based; conditions: in vivo, 168 h
# Rattus norvegicus [4] = experiment: Anti-urolithic activity in spontaneous hypertensive Wistar rats assessed as reduction in CaOx crystal formation in cumulative urine at 0.1 mg/kg, po administered via gavage in presence of sodium oxalate by Neubauer counting chamber method relative to control; format: functional; parameters: scale not given: the % may be the effect or the level left
# Rattus norvegicus [5] = experiment: Diuretic activity in normotensive Wistar rat assessed as urinary chloride excretion at 0.1 mg/kg, ip […] after 8 hrs (reference value: 103.30 +/- 10.25 mmol/L); format: functional
# Rattus norvegicus [6] = experiment: Diuretic activity in normotensive Wistar rat assessed as urinary potassium excretion at 1 mg/kg, po administered via gavage after 8 hrs (reference value: 22.39 to 24.21 mmol/L); format: ADME, organism-based; conditions: in vivo
# Rattus norvegicus [7] = experiment: Diuretic activity in normotensive Wistar rat assessed as urinary chloride excretion at 0.1 mg/kg, po administered via gavage after 8 hrs in presence of amiloride (reference value: 135.10 to 143.70 mmol/L); format: functional
# [8] = Toxicity in spontaneous hypertensive Wistar rat assessed as changes in plasma sodium level at 0.1 mg/kg, po administered for 7 days; format: organism-based; conditions: in vivo, 168 h
# Rattus norvegicus [9] = experiment: Diuretic activity in normotensive Wistar rat assessed as urinary calcium excretion at 0.1 mg/kg, po administered via gavage after 8 hrs in presence of furosemide (reference value: 5.93 to 6.87 mg/dl); format: functional
# Rattus norvegicus [10] = experiment: Diuretic activity in normotensive Wistar rat assessed as urine conductivity at 0.1 mg/kg, po administered via gavage after 8 hrs in presence of atropine (reference value: 19.54 +/- 0.98 mS/cm); format: functional
# Rattus norvegicus [11] = experiment: Diuretic activity in normotensive Wistar rat assessed as urinary sodium excretion at 0.1 mg/kg, po administered via gavage after 8 hrs in presence of L-NAME (reference value: 61.82 to 80.81 mmol/L); format: functional
# Rattus norvegicus [12] = experiment: Diuretic activity in normotensive Wistar rat assessed as urinary potassium excretion at 1 mg/kg, ip […] after 8 hrs (reference value: 22.33 +/- 2.81 mmol/L); format: ADME, organism-based; conditions: in vivo
# [13] = Toxicity in spontaneous hypertensive Wistar rat assessed as changes in plasma chloride level at 0.1 mg/kg, po administered for 7 days; format: organism-based; conditions: in vivo, 168 h
# [14] = Toxicity in normotensive Wistar rat assessed as changes in urea level in urine at 0.1 mg/kg, po administered for 7 days; format: organism-based; conditions: in vivo, 168 h
# Rattus norvegicus [15] = experiment: Diuretic activity in normotensive Wistar rat assessed as urinary potassium excretion at 0.01 mg/kg, po administered via gavage after 8 hrs (reference value: 22.39 to 24.21 mmol/L); format: ADME, organism-based; conditions: in vivo
# Rattus norvegicus [16] = experiment: Diuretic activity in normotensive Wistar rat assessed as urinary calcium excretion at 0.1 mg/kg, po administered via gavage after 8 hrs in presence of hydrochlorothiazide (reference value: 5.93 to 6.87 mg/dl); format: functional
# Rattus norvegicus [17] = experiment: Diuretic activity in normotensive Wistar rat assessed as urinary sodium excretion at 0.1 mg/kg, po administered via gavage after 8 hrs in presence of amiloride (reference value: 61.82 to 80.81 mmol/L); format: functional
# Rattus norvegicus [18] = experiment: Diuretic activity in normotensive Wistar rat assessed as urinary chloride excretion at 0.1 mg/kg, po administered via gavage after 8 hrs in presence of L-NAME (reference value: 135.10 to 143.70 mmol/L); format: functional
# Rattus norvegicus [19] = experiment: Diuretic activity in normotensive Wistar rat assessed as urine pH at 0.1 mg/kg, po administered via gavage after 8 hrs in presence of atropine (reference value: 6.14 to 6.21); format: functional
# Rattus norvegicus [20] = experiment: Diuretic activity in normotensive Wistar rat assessed as urinary calcium excretion at 0.1 mg/kg, […] administered via gavage after 8 hrs (reference value: 5.28 +/- 0.09 mg/dl); format: functional
# Rattus norvegicus [21] = experiment: Cardioprotective activity in spontaneous hypertensive Wistar rat assessed as effect on heart weight at 0.1 mg/kg, po administered for 7 days; format: functional, organism-based
# [22] = Toxicity in normotensive Wistar rat assessed as changes in urinary creatinine at 0.1 mg/kg, po administered for 7 days; format: organism-based; conditions: in vivo, 168 h
# Rattus norvegicus [23] = experiment: Diuretic activity in normotensive Wistar rat assessed as increase in urine volume excretion at 1 mg/kg, ip a after 6 hr; format: functional, organism-based
# [24] = Toxicity in normotensive Wistar rat assessed as changes in plasma calcium level at 0.1 mg/kg, po administered for 7 days; format: organism-based; conditions: in vivo, 168 h
# Rattus norvegicus [25] = experiment: Anti-urolithic activity in normotensive Wistar rats assessed as reduction in CaOx crystal formation in cumulative urine at 0.1 mg/kg, po administered via gavage in presence of sodium oxalate by Neubauer counting chamber method relative to control; format: functional; parameters: scale not given: the % may be the effect or the level left
# Rattus norvegicus [26] = experiment: Diuretic activity in normotensive Wistar rat assessed as urinary potassium excretion at 0.01 mg/kg, ip […] after 8 hrs (reference value: 22.33 +/- 2.81 mmol/L); format: ADME, organism-based; conditions: in vivo
# Rattus norvegicus [27] = experiment: Diuretic activity in normotensive Wistar rat assessed as urinary chloride excretion at 0.1 mg/kg, po administered via gavage after 8 hrs in presence of atropine (reference value: 135.10 to 143.70 mmol/L); format: functional
# [28] = Toxicity in normotensive Wistar rat assessed as changes in plasma ALT level at 0.1 mg/kg, po administered for 7 days; format: organism-based; conditions: in vivo, 168 h
# Rattus norvegicus [29] = experiment: Diuretic activity in normotensive Wistar rat assessed as increase in urine volume at 0.1 mg/kg, po administered via gavage for 7 days; format: functional, organism-based
# Rattus norvegicus [30] = experiment: Diuretic activity in normotensive Wistar rat assessed as urinary sodium excretion at 1 mg/kg, po administered via gavage after 8 hrs (reference value: 61.82 to 80.81 mmol/L); format: functional
# [31] = Antioxidant activity assessed as DPPH radical scavenging activity at 100 to 1000 ug/ml after 5 mins; format: functional
# Rattus norvegicus [32] = experiment: Renal protective activity in spontaneous hypertensive Wistar rat assessed as reduction in hypertension-induced mesangial space disarrangement at 0.1 mg/kg, po administered via gavage for 7 days by hematoxylin and eosin staining based microscopic analysis; format: functional, organism-based
# [33] = Toxicity in spontaneous hypertensive Wistar rat assessed as changes in plasma nitrite acid level at 0.1 mg/kg, po administered for 7 days; format: organism-based; conditions: in vivo, 168 h
# [34] = Toxicity in normotensive Wistar rat assessed as changes in plasma uric acid level at 0.1 mg/kg, po administered for 7 days; format: organism-based; conditions: in vivo, 168 h
# Rattus norvegicus [35] = experiment: Diuretic activity in normotensive Wistar rat assessed as urinary sodium excretion at 1 mg/kg, ip after 8 hrs (reference value: 81.56 +/- 13.10 mmol/L); format: functional
# Rattus norvegicus [36] = experiment: Diuretic activity in normotensive Wistar rat assessed as urinary potassium excretion at 0.1 mg/kg, po administered via gavage after 8 hrs in presence of furosemide (reference value: 22.39 to 24.21 mmol/L); format: ADME, organism-based; conditions: in vivo
# [37] = Toxicity in spontaneous hypertensive Wistar rat assessed as changes in plasma potassium level at 0.1 mg/kg, po administered for 7 days; format: organism-based; conditions: in vivo, 168 h
smiles,measurement,setting,value
C[C@@H]1O[C@@H](Oc2c(-c3ccc(O)cc3)oc3cc(O)cc(O)c3c2=O)[C@H](O)[C@H](O)[C@H]1O [AFZELIN],pH,Rattus norvegicus [1],5.91
same,pH,Rattus norvegicus [2],6.26
same,Activity,Rattus norvegicus [3],Non-Toxic
same,Activity,Rattus norvegicus [4],92.53%
same,Activity,Rattus norvegicus [5],78.12 mmol/L
same,Activity,Rattus norvegicus [6],22.5 mmol/L
same,Activity,Rattus norvegicus [7],161.1 mmol/L
same,Activity,[8],Non-Toxic
same,Activity,Rattus norvegicus [9],5.36 mg/dL
same,Activity,Rattus norvegicus [10],19.09 mS/cm
same,Activity,Rattus norvegicus [11],75.14 mmol/L
same,Activity,Rattus norvegicus [12],14.41 mmol/L
same,Activity,[13],Non-Toxic
same,Activity,[14],Non-Toxic
same,Activity,Rattus norvegicus [15],17.98 mmol/L
same,Activity,Rattus norvegicus [16],4.54 mg/dL
same,Activity,Rattus norvegicus [17],79.24 mmol/L
same,Activity,Rattus norvegicus [18],336.1 mmol/L
same,pH,Rattus norvegicus [19],6.14
same,Activity,Rattus norvegicus [20],5.51 mg/dL
same,Activity,Rattus norvegicus [21],inactive
same,Activity,[22],Non-Toxic
same,Activity,Rattus norvegicus [23],Active
same,Activity,[24],Non-Toxic
same,Activity,Rattus norvegicus [25],41.3%
same,Activity,Rattus norvegicus [26],15.61 mmol/L
same,Activity,Rattus norvegicus [27],231.8 mmol/L
same,Activity,[28],Non-Toxic
same,Activity,Rattus norvegicus [29],Active
same,Activity,Rattus norvegicus [30],74.67 mmol/L
same,Activity,[31],Active
same,Activity,Rattus norvegicus [32],Active
same,Activity,[33],Non-Toxic
same,Activity,[34],Non-Toxic
same,Activity,Rattus norvegicus [35],62.46 mmol/L
same,Activity,Rattus norvegicus [36],20.41 mmol/L
same,Activity,[37],Non-Toxic
